Test results published in patent US5244908A, “Imidazopyridine derivatives and their pharmaceutical use” (Takeda Chemical Industries, Ltd., priority 1990, dated 1993).
Each block holds one compound with its values, some of them ahead of it.

Assays:
[1] = system: endothelial cells (HUVE cells); assay: Effect on growth of endothelial cells (HUVE cells, basic FGF, MTT method); format: cell-based; conditions: Homo sapiens, Endothelial cell, 72 h, basic FGF 2 ng/ml, 3 days, read-out: IC50 (concentration inhibiting growth of endotherial cells by 50%)
Experimental: This experiment was conducted by using endothelial cells (HUVE cells) obtained from human umbilical vein. […] After 24 hours, human recombinant basic FGF (endotherial cell growth factor) was added thereto in the final concentration of 2 ng/ml and a test compound was further added, followed by cultivation for 3 days.

calmodulin = calmodulin (Bos taurus, UniProt P62157); assay: Calmodulin inhibitory activity (calmodulin-activated cyclic nucleotide phosphodiesterase, [3H]cGMP); format: biochemical; conditions: 10^-5 M
[2] = system: spontaneous hypertensive rat (SHR); assay: Hypotensive activity in spontaneous hypertensive rat (SHR), Plethysmograph method; format: in vivo; conditions: SHR male rats, oral, 100 mg/kg; for Change of blood pressure, 1 hour: 1 hour after administration; for Change of blood pressure, 5 hours: 5 hours after administration
Experimental: Hypotensive activity in spontaneous hypertensive rat (SHR)
SHR male rats of twenty weeks old were used. They were warmed in an incubator at 37° C. for 5 minutes and the measurement was conducted according to Plethysmograph method. Medicines (the compounds in the above Examples) were suspended in gum arabic-water and were orally administered in an amount of 2.5 ml/kg. Blood pressure was measured before administration of medicines, at 1 hour and at 5 hours after administration, and the change of the value from that before administration was determined, respectively.

rat kidneys = assay: Effect on acute renal failure caused by ischemia and following reperfusion in rat kidneys; format: in vivo; conditions: 1 hour before occlusion, 20 hours after reperfusion
Experimental: Effect on acute renal failure caused by ischemia and following reperfusion in rat kidneys.
SD rats (male) of 6 to 7 weeks old were anesthetized with pentobarbital sodium (50 mg/kg, i.p.) and bilateral renal arteries were ligated. After 45 minutes, a clip was removed to reperfuse. After 20 hours, blood was collected from abdominal aorta under anesthesia with pentobarbital sodium and blood urea nitrogen (BUN) was measured. Medicines (compounds obtained in the above Examples) were orally administered (5 ml/kg) 1 hour before occulusion of renal artery.

rat heart = assay: Effect on incidence of arrhythmia caused by ischemia and following reperfusion in rat heart; format: in vivo; conditions: 1 hour before ligation, until 10 minutes after reperfusion
Experimental: Effect on incidence of arrhythmia caused by ischemia and following reperfusion in rat heart
Male Sprague Dawley rats (Japan Clea) of 9 to 10 weeks old were anesthetized with 50 mg/kg (i.p.) of sodium pentobarbital. The heart was exposed by a left thoractomy under artificial ventilation with room air and silk suture was placed under the main left coronary artery (LAD) to ligate for 5 minutes. Then, the ligature was released again for reperfusion. The incidence of ventricular tachycardia (VT), ventricular fibrillation (VF) and cardiac arrest (CA) caused until 10 minutes after reperfusion were noted. Medicines (compounds obtained in the above Examples) were orally administered (5 ml/kg) at 1 hour before tightening the ligature. The effect of medicines were estimated in comparison with the frequency of a group received a vehicle according to X^2 -test.

[3] = system: experimental ischemic disorders; conditions: in vivo; cited from earlier work

Compound: CC(C)OC(=O)NCCSc1cccc2nccn12 [21']
IC50 [1]: 5 µM

Compound: CS(=O)(=O)NCCSc1cccc2nccn12 [Compound 1, 5-[2-(methylsulfonylamino)ethylthio]imidazo[1,2-a]pyridine]
inhibition at 10 µM (calmodulin): 94% | Change of blood pressure, 1 hour [2]: -11.2 mmHg | Change of blood pressure, 5 hours [2]: -11.5 mmHg | Blood urea nitrogen (rat kidneys; 10 mg/kg oral): 83.3 ± 20.4 mg/dL | Blood urea nitrogen (rat kidneys; 30 mg/kg oral): 71.1 ± 11.4 mg/dL | Blood urea nitrogen (rat kidneys; 50 mg/kg oral): 65.6 ± 5.1 mg/dL | CA (Frequency), cardiac arrest (rat heart; 10 mg/kg oral): 1/4 | VF (Frequency), ventricular fibrillation (rat heart; 10 mg/kg oral): 2/4 | VT (Frequency), ventricular tachycardia (rat heart; 10 mg/kg oral): 2/4 | CA (Frequency), cardiac arrest (rat heart; 30 mg/kg oral): 0/4 | VF (Frequency), ventricular fibrillation (rat heart; 30 mg/kg oral): 1/4 | VT (Frequency), ventricular tachycardia (rat heart; 30 mg/kg oral): 1/4

Compound: O=S(=O)(NCCCSc1cccc2nccn12)C(F)(F)F [Compound 28, 5-[3-(Trifluoromethylsulfonylamino)propylthio]imidazo[1,2-a]pyridine]
inhibition at 10 µM (calmodulin): 72% | Change of blood pressure, 1 hour [2]: -13.5 mmHg | Change of blood pressure, 5 hours [2]: -43.0 mmHg

Compound: CN(C)CCCN1c2ccccc2Sc2ccc(Cl)cc21 [chlorpromazine]
effect on experimental ischemic disorders (in words) [3]: effective for experimental ischemic disorders

Further lines, with some results ahead:

inhibition at 10 µM (calmodulin): 82%
Compound: CS(=O)(=O)NCCCOc1cccc2nccn12 [Compound 64, 5-[3-(methylsulfonylamino)propyloxy]imidazo[1,2-a]pyridine]
Change of blood pressure, 1 hour [2]: -31.0 mmHg | Change of blood pressure, 5 hours [2]: -27.0 mmHg | CA (Frequency), cardiac arrest (rat heart; 30 mg/kg oral): 1/3 | VF (Frequency), ventricular fibrillation (rat heart; 30 mg/kg oral): 1/3 | VT (Frequency), ventricular tachycardia (rat heart; 30 mg/kg oral): 1/3

inhibition at 10 µM (calmodulin): 72%
Compound: O=S(=O)(NCCCCOc1cccc2nccn12)C(F)(F)F [Compound 67, 5-[4-(Trifluoromethylsulfonylamino)butyloxy]imidazo[1,2-a]pyridine]
Change of blood pressure, 1 hour [2]: -15.0 mmHg | Change of blood pressure, 5 hours [2]: -22.0 mmHg

inhibition at 10 µM (calmodulin): 57%
Compound: O=S(=O)(NCCCCCOc1cccc2nccn12)C(F)(F)F [Compound 69, 5-[5-(Trifluoromethylsulfonylamino)pentyloxy]imidazo[1,2-a]pyridine]
Change of blood pressure, 1 hour [2]: -7.0 mmHg | Change of blood pressure, 5 hours [2]: -32.0 mmHg

inhibition at 10 µM (calmodulin): 57%
Compound: O=C(NCc1ccncc1)OCCSc1cccc2nccn12 [Compound 127, 5-[2-[4-(Pyridyl)methylcarbamoyloxy]ethylthio]imidazo[1,2-a]pyridine]
CA (Frequency), cardiac arrest (rat heart; 30 mg/kg oral): 0/3 | VF (Frequency), ventricular fibrillation (rat heart; 30 mg/kg oral): 1/3 | VT (Frequency), ventricular tachycardia (rat heart; 30 mg/kg oral): 1/3
